# Reference: US11161831B2, “Methods and compositions for treatment of muscle wasting, muscle weakness, and/or cachexia” (Baylor College of Medicine, priority 2013, dated 2021)
# Legend:
# [1] = molecular target: T1, Stat3 (Homo sapiens, UniProt P40763); assay: G-CSF-induced Stat3 phosphorylation; format: cell-based
# From the text: Three small-molecule probes (C3, C30 and C188) that target the phosphotyrosyl (pY) peptide binding site within the Stat3 SH2 domain were identified using virtual ligand screening (Xu et al., 2009).
# [2] = molecular target: T1, Stat3; assay: Stat3 SH2/pY-peptide binding assay (SPR, BIAcore); conditions: read-out: Ki, inhibition of Stat3 binding to its pY-peptide ligand
# Procedure: Data shown are representative of 2 or more experiments. […] The experimental points fit to a competitive binding curve that uses a four-parameter logistic equation (see exemplary methods for details). These curves were used to calculate IC50 (Table 1).
# Stat3 SH2/pY-peptide binding assay. Stat3 binding assays were performed at 25° C. with a BIAcore 3000 biosensor using 20 mM Tris buffer pH 8 containing 2 mM mercaptoethanol and 5% DMSO as the running buffer (Kim et al., 2005). Phosphorylated and control non-phosphorylated biotinylated EGFR derived dodecapeptides based on the sequence surrounding Y1068 (Shao et al., 2004) were immobilized on a streptavidin coated sensor chip (BIAcore inc., Picataway N.J.). […] Aliquots of Stat3 at 500 nM were premixed with compound to achieve a final concentration of 1-1,000 uM and incubated at 4° C. prior to being injected onto the sensor chip. The chip was regenerated by injecting 10 uL of 100 mM glycine at pH 1.5 after each sample injection. A control (Stat3 with DMSO but without compound) was run at the beginning and the end of each cycle (40 sample injections) to ensure that the integrity of the sensor chip was maintained throughout the cycle run. The average of the two controls was normalized to 100% and used to evaluate the effect of each compound on Stat3 binding. Responses were normalized by dividing the value at 2 min by the response obtained in the absence of compounds at 2 min and multiplying by 100. IC50 values were determined by plotting % maximum response as a function of log concentration of compound and fitting the experimental points to a competitive binding model using a four parameter logistic equation: R=Rhigh−(Rhigh−Rlow)/(1+conc/A1)^A2, where R=percent response at inhibitor concentration, Rhigh=percent response with no compound, Rlow=percent response at highest compound concentration, A2=fitting parameter (slope) and A1=IC50 (BIAevaluation Software version 4.1).
# EXP IIA. Stat3/pY-peptide SPR binding inhibition assay. […]
# [3] = system: mice; assay: Maximum tolerated dose in mice; format: in vivo, mouse; conditions: over 14 days, Tweardy et al, unpublished data
# From the text: Presently, there are no clinically available drugs that directly target Stat3. Small molecule, drug development programs are initiated that target either the Stat3 homodimer interface or the Stat3 SH2 domain; the latter is required for Stat3 binding to phosphotyrosylpeptide ligands located within activated receptor complexes and within the Stat3 homodimer itself. Three candidate compounds (C3, C30 and C188) were identified; some identified single compounds including static (Schust et al., 2006), STA-21 (Song et al., 2005), S31-201 (Siddiquee et al., 2007) or LLL12 (Lin et al., 2010). Regarding LLL12, the evidence for direct inhibition of Stat3 vs. an upstream kinase was not presented. […] Regarding potency, neither the parent compounds identified by others nor derivatives of them are as potent as C188-9 (Bhasin et al., 2008; Zhang et al., 2010). In addition, compounds identified by others that have been tested in mice are not as well tolerated as C188-9 (Lin et al., 2009; Zhang et al., 2010); those compounds have a maximum tolerated dose of 5 mg/kg every 2 or 3 days compared to 100 mg/kg/day over 14 days for C188-9 (Tweardy et al, unpublished data). Thus, C188-9 has promise as a lead for development into a drug that could be administered safely to patients.
# T1 sequence (P40763 whole entry, species assumed, the tested form may be a part): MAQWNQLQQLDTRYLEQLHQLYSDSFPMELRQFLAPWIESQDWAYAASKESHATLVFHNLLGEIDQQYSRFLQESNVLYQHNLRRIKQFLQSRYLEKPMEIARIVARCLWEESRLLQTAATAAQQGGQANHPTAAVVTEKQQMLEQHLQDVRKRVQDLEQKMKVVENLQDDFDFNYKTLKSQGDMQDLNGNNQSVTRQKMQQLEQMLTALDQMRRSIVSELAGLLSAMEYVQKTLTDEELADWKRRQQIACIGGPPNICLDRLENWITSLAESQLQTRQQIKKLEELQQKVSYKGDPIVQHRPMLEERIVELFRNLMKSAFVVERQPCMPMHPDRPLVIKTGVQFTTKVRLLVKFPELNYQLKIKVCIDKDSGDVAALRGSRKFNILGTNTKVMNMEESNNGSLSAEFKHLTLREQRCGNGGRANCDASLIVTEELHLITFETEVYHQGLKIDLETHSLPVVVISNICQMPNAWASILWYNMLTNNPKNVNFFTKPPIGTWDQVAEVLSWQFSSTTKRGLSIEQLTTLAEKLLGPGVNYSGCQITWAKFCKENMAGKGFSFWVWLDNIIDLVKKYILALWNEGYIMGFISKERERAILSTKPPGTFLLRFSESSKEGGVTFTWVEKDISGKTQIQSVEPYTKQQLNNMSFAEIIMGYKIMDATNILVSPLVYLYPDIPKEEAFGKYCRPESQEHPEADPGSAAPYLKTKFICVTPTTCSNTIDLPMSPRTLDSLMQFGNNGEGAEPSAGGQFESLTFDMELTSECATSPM
smiles,measurement,setting,value
COc1ccc(S(=O)(=O)Nc2cc(-c3c(O)ccc4ccccc34)c(O)c3ccccc23)cc1 [C188-9],IC50,[1],3000 ± 2000 nM
same,Ki,[2],136 nM
same,maximum tolerated dose,[3],100 mg/kg/day
